Assays:
MDA-MB-453 [1] = experiment: drug sensitivity score (DSS), in combination with BLU9931 (DSS (weighted AUC score)); higher = more sensitive (stronger viability decrease); extreme values may be limits of the assay; conditions: BLU9931 100 nM; 72 h
Outline: (§1)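 Drug sensitivity scores come from a weighted area under a four-parameter logistic fit to percent viability, normalised per plate to control wells. Viability was based on cellular ATP read with CellTiterGlo 2.0 after 72 h at 37 °C, 5% CO2. Each 384-well plate carried FIMM Oncology set compounds in singlicate at five 10-fold dilutions, with 2000 MDA-MB-453 cells per well in medium with or without an FGFR4 inhibitor at 100 nM final.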

MDA-MB-453 [2] = experiment: drug sensitivity score (DSS), single agent (DSS (weighted AUC score)); higher = more sensitive (stronger viability decrease); extreme values may be limits of the assay; conditions: BLU9931 0 nM; 72 h
Outline: as §1

Structure (SMILES): Cc1c2oc3c(C)ccc(C(=O)N[C@@H]4C(=O)N[C@H](C(C)C)C(=O)N5CCC[C@H]5C(=O)N(C)CC(=O)N(C)[C@@H](C(C)C)C(=O)O[C@@H]4C)c3nc-2c(C(=O)N[C@@H]2C(=O)N[C@H](C(C)C)C(=O)N3CCC[C@H]3C(=O)N(C)CC(=O)N(C)[C@@H](C(C)C)C(=O)O[C@@H]2C)c(N)c1=O [Dactinomycin]
- drug sensitivity score (MDA-MB-453 [1]): 22
- drug sensitivity score (MDA-MB-453 [2]): 21

Structure (SMILES): CN1CCc2c(c3ccccc3n2Cc2ccc(C(=O)NO)cc2)C1 [Tubastatin A]
- drug sensitivity score (MDA-MB-453 [1]): 2.1
- drug sensitivity score (MDA-MB-453 [2]): 4.1

Structure (SMILES): CC1(C)OCCn2c1nc1c(N3CCOCC3)nc(-c3cnc(N)nc3)nc12 [GDC-0084]
- drug sensitivity score (MDA-MB-453 [1]): 17.4
- drug sensitivity score (MDA-MB-453 [2]): 16.4

Structure (SMILES): C[C@@H](Oc1cc(-c2cnn(C3CCNCC3)c2)cnc1N)c1c(Cl)ccc(F)c1Cl [Crizotinib]
- drug sensitivity score (MDA-MB-453 [1]): 0
- drug sensitivity score (MDA-MB-453 [2]): 0

Structure (SMILES): Nc1nc2cc(-c3ccc4ncc(C(=O)N5CCOCC5)n4c3)ccc2o1 [Serabelisib]
- drug sensitivity score (MDA-MB-453 [1]): 9.8
- drug sensitivity score (MDA-MB-453 [2]): 7.8

Structure (SMILES): COc1cc(N2CCN(C)CC2)ccc1Nc1nccc(-c2cn(C)c3cnccc23)n1 [AZ191]
- drug sensitivity score (MDA-MB-453 [1]): 1.2
- drug sensitivity score (MDA-MB-453 [2]): 1.3

Structure (SMILES): CCc1cnn2c(NCc3ccc[n+]([O-])c3)cc(N3CCCC[C@H]3CCO)nc12 [Dinaciclib]
- drug sensitivity score (MDA-MB-453 [1]): 21.5
- drug sensitivity score (MDA-MB-453 [2]): 22.1

Structure (SMILES): C[C@@H]1C=C2C(=O)O[C@@H]3CC[C@H](C1)[C@]23O [Galiellalactone]
- drug sensitivity score (MDA-MB-453 [1]): 7.7
- drug sensitivity score (MDA-MB-453 [2]): 7.4

Structure (SMILES): COc1cc(OC2CCN(C)CC2)ccc1Nc1ncc2c(n1)n(C1CCCC1)c(=O)n2C [AZ 3146]
- drug sensitivity score (MDA-MB-453 [1]): 1
- drug sensitivity score (MDA-MB-453 [2]): 2.6

Structure (SMILES): CC(C)(C)Cn1c(N)nc2ccc(-c3[nH]c(C(C)(C)C)nc3-c3ccc(F)cc3)nc21 [Ralimetinib]
- drug sensitivity score (MDA-MB-453 [1]): 0.8
- drug sensitivity score (MDA-MB-453 [2]): 1.8

Structure (SMILES): CC(=O)c1cnc2ccc(-c3cc(Cl)c(O)c(Cl)c3)nc2c1N[C@H]1CC[C@H](CN(C)C)CC1 [OTS167]
- drug sensitivity score (MDA-MB-453 [1]): 15.9
- drug sensitivity score (MDA-MB-453 [2]): 17.4

Structure (SMILES): COc1ncc(-c2ccc3nccc(-c4ccnnc4)c3c2)cc1NS(=O)(=O)c1ccc(F)cc1F [Omipalisib]
- drug sensitivity score (MDA-MB-453 [1]): 25.1
- drug sensitivity score (MDA-MB-453 [2]): 23

Structure (SMILES): CC1(C)CNc2cc(NC(=O)c3cccnc3NCc3ccncc3)ccc21 [Motesanib]
- drug sensitivity score (MDA-MB-453 [1]): 0.3
- drug sensitivity score (MDA-MB-453 [2]): 1

Structure (SMILES): CCS(=O)(=O)Nc1ccc(Oc2ccc(F)cc2F)c(-c2cn(C)c(=O)c3[nH]ccc23)c1 [Mivebresib]
- drug sensitivity score (MDA-MB-453 [1]): 31.1
- drug sensitivity score (MDA-MB-453 [2]): 29.9

Structure (SMILES): CC(=O)[C@]1(O)Cc2c(O)c3c(c(O)c2[C@@H](O[C@H]2C[C@H](N)[C@H](O)[C@H](C)O2)C1)C(=O)c1ccccc1C3=O [Idarubicin]
- drug sensitivity score (MDA-MB-453 [1]): 6.4
- drug sensitivity score (MDA-MB-453 [2]): 5.9

Structure (SMILES): Nc1nc(NC2CC2)cc(-c2cccc(Cl)c2Cl)n1 [TH588]
- drug sensitivity score (MDA-MB-453 [1]): 1.7
- drug sensitivity score (MDA-MB-453 [2]): 2.4

Structure (SMILES): COc1cc2nccc(Oc3ccc(NC(=O)NC4CC4)c(Cl)c3)c2cc1C(N)=O [Lenvatinib]
- drug sensitivity score (MDA-MB-453 [1]): 0.9
- drug sensitivity score (MDA-MB-453 [2]): 3.9

Structure (SMILES): COc1cc([C@@H]2c3cc4c(cc3[C@@H](O[C@@H]3O[C@@H]5CO[C@@H](c6cccs6)O[C@H]5[C@H](O)[C@H]3O)[C@H]3COC(=O)[C@H]23)OCO4)cc(OC)c1O [Teniposide]
- drug sensitivity score (MDA-MB-453 [1]): 0
- drug sensitivity score (MDA-MB-453 [2]): 0

Structure (SMILES): CC(C)(C#N)c1cc(Cn2cncn2)cc(C(C)(C)C#N)c1 [Anastrozole]
- drug sensitivity score (MDA-MB-453 [1]): 0
- drug sensitivity score (MDA-MB-453 [2]): 0

Structure (SMILES): CC(C)Nc1cc(-c2c[nH]c(C(=O)N[C@H](CO)c3cccc(Cl)c3)c2)c(Cl)cn1 [Ulixertinib]
- drug sensitivity score (MDA-MB-453 [1]): 0.5
- drug sensitivity score (MDA-MB-453 [2]): 3.5

Structure (SMILES): CNc1nc(-c2ccc3c(N)n[nH]c3c2)cc(N2C[C@@H](C(=O)NC3CCCCC3)CC[C@H]2C)n1
- drug sensitivity score (MDA-MB-453 [1]): 3.9
- drug sensitivity score (MDA-MB-453 [2]): 4.8

Structure (SMILES): CCCC(CCC)C(=O)O [Valproic acid]
- drug sensitivity score (MDA-MB-453 [1]): 0.9
- drug sensitivity score (MDA-MB-453 [2]): 1.6

Structure (SMILES): Cc1cc(Nc2nc(N[C@@H](C)c3ncc(F)cn3)ncc2Cl)[nH]n1 [AZD1480]
- drug sensitivity score (MDA-MB-453 [1]): 0
- drug sensitivity score (MDA-MB-453 [2]): 0.3

— the supplement of paper PMC7224384
